Reference: patent US8946426B2, “Substituted bicyclic heterocyclic compounds as gamma secretase modulators” (Janssen Pharmaceuticals, Inc., priority 2009, dated 2015)

System: mouse Notch2
Assay: Notch cell-based assay (N2-CHO/DL-CHO co-culture, Dual-Glo luciferase, NICD production)
Conditions: N2-CHO/DL-CHO co-culture 16 H; five-point curve 3 μM-0.3 nM
Source text: The Notch cell-based assay was based on the interaction of Notch and its ligand in a co-culture system and utilized the Dual-Glo Luciferase Assay System (Promega) to monitor NICD production. Two stable cell lines, N2-CHO and DL-CHO, were established to express full-length mouse Notch2 and Delta respectively. Cells that expressed mouse Notch were also transfected with two plasmids, pTP1-Luc and pCMV-RLuc, to express firefly and Renilla luciferase. Expression of firefly luciferase was under the control of TP1 promoter that responded to NICD activation.
N2-CHO cells were seeded at 1×10^5/well in 24-well plates the day before transfection. On the second day, cells were double transfected with 3 μg/well pTP1-Luc (expressing firefly luciferase) and 0.3 ng/well pCMV-RLuc (expressing Renilla luciferase). After 6 H incubation, transfected N2-CHO cells were washed and DL-CHO cells (2×10^5 cells/well) were added.
Compounds were pre-mixed with DL-CHO cell suspension in a five-point curve. Typically, compound treatment was performed in duplicate with a serial 1:10 dilution (3 μM-0.3 nM) in DMSO. The final concentration of DMSO in a given culture was 1%. Controls included non-transfected cells and transfected cells treated with a GSI or DMSO only. Luciferase assays were performed after 16 H co-culture and compound treatment.
The luciferase assay was carried out according to manufacture's instructions. Briefly, cells were washed with PBS (Phosphate Buffered Saline), lysed with Passive Lysis Buffer (Promega), and incubated at room temperature for 20 min. Lysates were mixed with Dual-Glo Luciferase Reagent and the firefly luciferase activity was measured by reading the luminescence signal in the EnVision 2101 Multilabel reader. Dual-Glo Stop & Glo Reagent was then added to each well and the Renilla luciferase signal was measured.

- average IC50 values from the Notch cell-based assay (luciferase assay readouts): non-inhibitory
SMILES: Cc1ncc(-c2ccc(Nc3cccc4c3nc(-c3ccc(F)cc3)n4C(C)C)cn2)o1 [Compound 18]
